Data reported in ChEMBL document CHEMBL1641512, “Lyconadins D and E, and complanadine E, new Lycopodium alkaloids from Lycopodium complanatum” (Bioorg Med Chem, 2011).
Activity calls are given as the source filed them. No cut-off for these calls is given here.

Key:
Format in all cases: cell-based
[1] = molecular target: Beta-nerve growth factor (Homo sapiens) (UniProt P01138); assay: Induction of neurotrophic factor mRNA expression in human 1321N1 cells at 100 uM by RT-PCR analysis relative to beta-actin mRNA expression
Sequence of Beta-nerve growth factor (Homo sapiens) (P01138 122-241 limits assumed): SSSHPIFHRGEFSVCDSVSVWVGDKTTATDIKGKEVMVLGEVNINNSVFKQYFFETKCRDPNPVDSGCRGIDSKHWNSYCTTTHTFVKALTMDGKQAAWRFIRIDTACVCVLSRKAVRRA

[2] = molecular target: Beta-nerve growth factor (Homo sapiens) (UniProt P01138); assay: Induction of neurotrophic factor mRNA expression in human 1321N1 cells by RT-PCR analysis
[3] = molecular target: Beta-nerve growth factor (Homo sapiens) (UniProt P01138); assay: Induction of neurotrophic factor mRNA expression in human 1321N1 cells at 100 uM by RT-PCR analysis

Compound	fold change (FC) [1]	Activity [2]	Activity [3]
C[C@@H]1C[C@H]2Cc3ncc(-c4ccc5c(n4)C(=O)[C@@H]4C[C@@H](C)C[C@]56NCCC[C@H]46)cc3[C@]3(C1)NCCC[C@H]23	2.3	–	–
C[C@@H]1C[C@H]2CC3=C(CC[C@H](c4cnc5c(c4)[C@@]46C[C@H](C)C[C@@H](C5)[C@H]4CCCN6)N3)[C@]3(C1)NCCC[C@H]23	2.4	–	–
C[C@@H]1C[C@H]2Cc3ncc(-c4ccc5c(n4)C[C@@H]4C[C@@H](C)C[C@]56NCCC[C@H]46)cc3[C@]3(C1)NCCC[C@H]23	3.9	Dose-dependent effect	–
C[C@@H]1C[C@H]2C[C@H]3N[C@H](c4cnc5c(c4)[C@@]46C[C@H](C)C[C@@H](C5)[C@H]4CCCN6)CC[C@H]3[C@]3(C1)NCCC[C@H]23	2.8	–	–
C[C@@H]1CC2=C3NC(=O)CC[C@]34C[C@@]3(C1)NC[C@H]4C[C@@H]23	–	–	inactive
C[C@@H]1CC2=C3NC(=O)CC[C@]34C[C@]3(C1)[C@H]2C[C@@H]4CN3C	–	–	inactive
